Literature values in paper PMC2831464 (Clinical cancer research : an official journal of the …, 2010).

Conditions: cited from earlier work

Structure (SMILES) | lactone AUC ratio | half-life [h] | share in the lactone form in plasma
CCc1c2c(nc3ccc(O)cc13)-c1cc3c(c(=O)n1C2)COC(=O)[C@]3(O)CC [SN-38] | 30~76% | – | –
CC[C@@]1(O)C(=O)OCc2c1cc1n(c2=O)Cc2c-1nc1ccccc1c2CC[Si](C)(C)C [karenitecin] | – | 15 | 90–95%
CC[C@@]1(O)C(=O)OCc2c1cc1n(c2=O)Cc2cc3c(CN(C)C)c(O)ccc3nc2-1 [topotecan] | 30~76% | – | –
CC[C@@]1(O)C(=O)OCc2c1cc1n(c2=O)Cc2c-1nc1ccccc1c2/C=N/OC(C)(C)C [gimatecan] | – | 77 | 90–98%
